Reference: article PMC2228615 (The Journal of General Physiology, 1980)
pKd: −log10 of the molar value. Where two headings read alike, the source gives them in different places.

What was measured:
ox-brain Na+,K+-ATPase = conditions: cited from earlier work
human erythrocytes = conditions: similar conditions, estimated; cited from earlier work
Na+,K+-dependent ATPase = format: binding, turkey; conditions: 150 mM Na+; for t1/2, observed half-time for disappearance of empty binding sites: 0.11-[…] K+, 37 C (Table I)

Row | SMILES | pKd (ox-brain Na+,K+-ATPase; read-out: D, dissociation constant for the potassium ion-ATPase complex, partially purified ox-brain ATPase, 150 mM Na+) | k-1, dissociation rate constant (human erythrocytes) | activation energy for association (Arrhenius plot of k1) (Na+,K+-dependent ATPase; 5-37 C) [kcal/mol] | activation energy for dissociation (Arrhenius plot of k-1) (Na+,K+-dependent ATPase; 5-37 C) [kcal/mol] | time to attain equilibrium between free and bound radioligand (Na+,K+-dependent ATPase; 20 C or higher, 0.5 mM K+, 0.85 uM [3H]ouabain (Fig. 1)) [min] | k-1, dissociation rate constant (Na+,K+-dependent ATPase; 37 C, 0.5 mM K+, after 1 mM nonradioactive ouabain (Fig. 2)) [min⁻¹] | t1/2, observed half-time for disappearance of empty binding sites (Na+,K+-dependent ATPase; [3H]ouabain 1.7x10-7 M) [min] | t1/2, observed half-time for disappearance of empty binding sites (Na+,K+-dependent ATPase; [3H]ouabain 3.2x10-7 M) [min] | t1/2, observed half-time for disappearance of empty binding sites (Na+,K+-dependent ATPase; [3H]ouabain 8.1x10-7 M) [min] | t1/2, observed half-time for disappearance of empty binding sites (Na+,K+-dependent ATPase; [3H]ouabain 8.1x10-8 M) [min] | activation energy for association (k1) (ox-brain Na+,K+-ATPase; Na+,K+-ATPase from ox-brain cortex microsomes) [kcal/mol]
1 | [K+] [potassium ion] | 2.66 |  |  |  |  |  |  |  |  |  | 
2 | C[C@@H]1O[C@@H](O[C@H]2C[C@@H](O)[C@]3(CO)[C@H]4[C@H](O)C[C@]5(C)[C@@H](C6=CC(=O)OC6)CC[C@]5(O)[C@@H]4CC[C@]3(O)C2)[C@H](O)[C@H](O)[C@H]1O [ouabain] |  | ~ 0.001 min-1 | 29.5 | 24.2 | ≤ 15 | 0.16 | 2.2 | 1.2 | 0.49 | 5.1 | 21 to 23
